From ChEMBL document CHEMBL4627308, “Identification of C10 nitrogen-containing aporphines with dopamine D1 versus D5 receptor selectivity” (Bioorg Med Chem Lett, 2020)

Assays:
[1] = target: T1, D(1A) dopamine receptor (Homo sapiens, UniProt P21728); test: Binding affinity to human D1 receptor
[2] = target: D(1B) dopamine receptor (Homo sapiens) (UniProt P21918); test: Inhibition of human D5 receptor relative to control; design: concentration or dose not given beside the values; settings: concentration not given here
[3] = target: T2, D(2) dopamine receptor (Homo sapiens, UniProt P14416); test: Inhibition of human D2 receptor relative to control; design: concentration or dose not given beside the values; settings: concentration not given here
[4] = target: T3, 5-hydroxytryptamine receptor 1A (Homo sapiens, UniProt P08908); test: Binding affinity to human 5HT1A receptor
T3 sequence (P08908 whole entry): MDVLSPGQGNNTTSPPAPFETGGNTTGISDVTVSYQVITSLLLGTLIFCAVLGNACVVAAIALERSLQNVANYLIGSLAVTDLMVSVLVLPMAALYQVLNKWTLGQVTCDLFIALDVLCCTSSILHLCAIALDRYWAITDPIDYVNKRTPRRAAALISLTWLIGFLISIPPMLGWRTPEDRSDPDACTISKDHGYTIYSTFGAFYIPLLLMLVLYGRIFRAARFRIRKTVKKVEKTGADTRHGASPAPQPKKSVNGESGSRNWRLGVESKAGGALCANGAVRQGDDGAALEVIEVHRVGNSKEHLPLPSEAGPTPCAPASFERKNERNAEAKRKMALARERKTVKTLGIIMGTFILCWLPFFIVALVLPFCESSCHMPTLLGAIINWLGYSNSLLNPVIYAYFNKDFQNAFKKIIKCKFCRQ

[5] = target: T4, 5-hydroxytryptamine receptor 2A (Homo sapiens, UniProt P28223); test: Inhibition of human 5HT2A receptor relative to control; design: concentration or dose not given beside the values; settings: concentration not given here
[6] = target: T2, D(2) dopamine receptor; test: Binding affinity to human D2 receptor
[7] = target: T5, 5-hydroxytryptamine receptor 1A (Homo sapiens) (UniProt P08908); test: Inhibition of human 5HT1A receptor relative to control; design: concentration or dose not given beside the values; settings: concentration not given here
T5 sequence (whole entry): T3 sequence (P08908 whole entry)

[8] = target: T4, 5-hydroxytryptamine receptor 2A
Description: Binding affinity to human 5HT2A receptor

[9] = target: T1, D(1A) dopamine receptor; test: Inhibition of human D1 receptor relative to control; design: concentration or dose not given beside the values; settings: concentration not given here
[10] = Microsomal stability in human liver microsomes assessed as parent compound remaining measured after 120 mins; format: ADME, Microsome; settings: 2 h
[11] = Microsomal stability in human liver microsomes assessed as parent compound remaining measured after 30 mins; format: ADME, Microsome; settings: 0.5 h
[12] = Microsomal stability in human liver microsomes assessed as parent compound remaining measured after 60 mins; format: ADME, Microsome; settings: 1 h
[13] = Microsomal stability in human liver microsomes assessed as parent compound remaining measured after 15 mins; format: ADME, Microsome; settings: 0.25 h
[14] = Microsomal stability in human liver microsomes assessed as parent compound remaining measured immediately; format: ADME, Microsome

T1 sequence (P21728 whole entry): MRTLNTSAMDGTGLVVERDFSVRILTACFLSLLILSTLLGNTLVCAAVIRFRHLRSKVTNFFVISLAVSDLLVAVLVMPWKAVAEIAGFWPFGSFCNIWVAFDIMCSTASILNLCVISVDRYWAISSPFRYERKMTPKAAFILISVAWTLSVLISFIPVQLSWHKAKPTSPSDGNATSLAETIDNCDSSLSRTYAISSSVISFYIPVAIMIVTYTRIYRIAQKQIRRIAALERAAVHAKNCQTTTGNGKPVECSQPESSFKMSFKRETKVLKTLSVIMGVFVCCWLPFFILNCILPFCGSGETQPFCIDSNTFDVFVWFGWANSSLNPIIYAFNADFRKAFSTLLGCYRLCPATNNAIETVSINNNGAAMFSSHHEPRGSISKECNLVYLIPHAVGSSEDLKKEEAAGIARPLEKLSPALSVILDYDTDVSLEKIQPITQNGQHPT
T2 sequence (P14416 whole entry): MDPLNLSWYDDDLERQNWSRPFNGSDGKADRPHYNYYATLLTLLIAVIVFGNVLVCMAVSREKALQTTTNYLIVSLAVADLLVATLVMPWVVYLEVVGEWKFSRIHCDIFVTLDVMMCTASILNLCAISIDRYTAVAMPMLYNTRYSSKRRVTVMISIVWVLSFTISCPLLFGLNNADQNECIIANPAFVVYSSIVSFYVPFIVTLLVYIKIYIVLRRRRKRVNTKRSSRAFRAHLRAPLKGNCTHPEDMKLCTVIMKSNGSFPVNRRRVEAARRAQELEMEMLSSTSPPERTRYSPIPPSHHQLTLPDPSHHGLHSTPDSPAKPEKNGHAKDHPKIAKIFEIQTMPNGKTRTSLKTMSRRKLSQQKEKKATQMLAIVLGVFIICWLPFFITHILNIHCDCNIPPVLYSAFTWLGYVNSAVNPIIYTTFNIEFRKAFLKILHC
Chain of D(1B) dopamine receptor (Homo sapiens) (P21918 whole entry): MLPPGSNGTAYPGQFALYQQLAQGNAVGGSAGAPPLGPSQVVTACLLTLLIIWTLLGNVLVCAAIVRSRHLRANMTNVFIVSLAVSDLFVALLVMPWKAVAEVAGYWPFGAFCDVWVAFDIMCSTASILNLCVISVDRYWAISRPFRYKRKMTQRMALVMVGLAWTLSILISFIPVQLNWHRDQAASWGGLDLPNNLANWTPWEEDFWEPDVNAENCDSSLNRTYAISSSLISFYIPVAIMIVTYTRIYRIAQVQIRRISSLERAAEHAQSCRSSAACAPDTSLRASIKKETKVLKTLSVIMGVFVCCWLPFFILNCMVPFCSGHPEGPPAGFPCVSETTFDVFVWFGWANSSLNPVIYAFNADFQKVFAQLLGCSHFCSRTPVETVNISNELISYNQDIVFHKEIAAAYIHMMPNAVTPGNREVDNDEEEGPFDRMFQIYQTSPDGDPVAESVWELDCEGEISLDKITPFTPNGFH
T4 sequence (P28223 whole entry): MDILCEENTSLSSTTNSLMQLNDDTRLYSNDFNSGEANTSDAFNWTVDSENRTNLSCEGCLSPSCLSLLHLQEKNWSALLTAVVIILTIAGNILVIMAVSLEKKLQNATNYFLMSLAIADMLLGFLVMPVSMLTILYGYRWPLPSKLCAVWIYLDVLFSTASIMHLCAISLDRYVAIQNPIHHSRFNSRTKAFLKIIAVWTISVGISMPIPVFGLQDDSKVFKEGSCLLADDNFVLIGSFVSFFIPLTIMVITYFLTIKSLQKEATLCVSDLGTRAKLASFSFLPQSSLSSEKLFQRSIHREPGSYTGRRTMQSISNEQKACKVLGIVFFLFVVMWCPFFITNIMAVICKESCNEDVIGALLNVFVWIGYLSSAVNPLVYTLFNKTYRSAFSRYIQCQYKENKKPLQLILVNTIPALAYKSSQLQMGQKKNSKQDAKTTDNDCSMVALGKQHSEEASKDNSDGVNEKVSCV

| SMILES | Ki [1] | inhibition [2] | inhibition [3] | Ki [4] | inhibition [5] | Ki [6] | inhibition [7] | Ki [8] | inhibition [9] | Stability [10] | Stability [11] | Stability [12] | Stability [13] | Stability [14] |
| --- | --- | --- | --- | --- | --- | --- | --- | --- | --- | --- | --- | --- | --- | --- |
| CN1CCc2cccc3c2C1Cc1ccc([N+](=O)[O-])cc1-3 (stereo not drawn) | 928 nM | < 50% | < 50% | 100 nM | < 50% |  |  |  |  |  |  |  |  |  |
| C=CCOc1c(OC)cc2c3c1-c1cc(N)ccc1CC3N(C)CC2 (stereo not drawn) | 830 nM | < 50% |  |  |  | 759 nM | < 50% | 234 nM |  |  |  |  |  |  |
| COc1cc2c3c(c1O)-c1cc(N)ccc1CC3N(C)CC2 (stereo not drawn) | 301 nM |  |  |  |  |  | < 50% | 850 nM |  |  |  |  |  |  |
| CN1CCc2cccc3c2C1Cc1ccc(N)cc1-3 (stereo not drawn) |  | < 50% |  | 269 nM |  | 679 nM |  | 672 nM | < 50% |  |  |  |  |  |
| COc1cc2c3c(c1OC)-c1cc([N+](=O)[O-])ccc1CC3N(C)CC2 (stereo not drawn) | 726 nM | < 50% |  | 458 nM |  | 478 nM |  | 1350 nM |  |  |  |  |  |  |
| O=[N+]([O-])c1ccc2c(c1)-c1cccc3c1C(C2)NCC3 (stereo not drawn) |  | < 50% | < 50% | 350 nM | < 50% |  |  |  | < 50% |  |  |  |  |  |
| C#CCOc1c(OC)cc2c3c1-c1cc([N+](=O)[O-])ccc1CC3N(C)CC2 (stereo not drawn) | 536 nM | < 50% |  | 206 nM | < 50% | 2050 nM |  |  |  |  |  |  |  |  |
| CC(=O)Nc1ccc2c(c1)-c1cccc3c1C(C2)N(C)CC3 (stereo not drawn) |  | < 50% | < 50% | 93 nM |  |  |  | 1060 nM | < 50% |  |  |  |  |  |
| CN1CCc2cccc3c2[C@H]1Cc1ccc(O)c(O)c1-3 [APOMORPHINE] |  |  |  |  |  |  |  |  |  | 36.68% | 99.73% | 80.43% | 89.33% | 100% |
| COc1cc2c3c(c1OC1CC1)-c1cc([N+](=O)[O-])ccc1CC3N(C)CC2 (stereo not drawn) |  | < 50% | < 50% | 439 nM | < 50% |  |  |  | < 50% |  |  |  |  |  |
| CC(C)[N+](C)(CCOC(=O)C1c2ccccc2Oc2ccccc21)C(C)C [PROPANTHELINE] |  |  |  |  |  |  |  |  |  | 0.16% | 36.32% | 6.4% | 65.33% | 100% |
| CCCC(=O)Nc1ccc2c(c1)-c1cccc3c1C(C2)N(C)CC3 (stereo not drawn) |  | < 50% | < 50% | 83 nM | < 50% |  |  |  | < 50% |  |  |  |  |  |
| COc1cc2c3c(c1O)-c1cc([N+](=O)[O-])ccc1CC3N(C)CC2 (stereo not drawn) | 316 nM | < 50% |  | 548 nM |  | 320 nM |  | 908 nM |  |  |  |  |  |  |
| COc1cc2c3c(c1OC1CC1)-c1cc(N)ccc1CC3N(C)CC2 (stereo not drawn) | 1110 nM | < 50% |  |  |  | 963 nM | < 50% | 110 nM |  |  |  |  |  |  |
| C=CCOc1c(OC)cc2c3c1-c1cc(NC(C)=O)ccc1CC3N(C)CC2 (stereo not drawn) | 155 nM | < 50% | < 50% |  |  |  | < 50% | 1220 nM |  |  |  |  |  |  |
| C#CCOc1c(OC)cc2c3c1-c1cc(N)ccc1CC3N(C)CC2 (stereo not drawn) | 709 nM | < 50% |  | 428 nM |  | 431 nM |  | 378 nM |  |  |  |  |  |  |
| COc1cc2c3c(c1OC)-c1cc(NC(C)=O)ccc1CC3N(C)CC2 (stereo not drawn) | 756 nM | < 50% |  |  | < 50% | 978 nM | < 50% |  |  |  |  |  |  |  |
| C#CCOc1c(OC)cc2c3c1-c1cc(NC(C)=O)ccc1CC3N(C)CC2 (stereo not drawn) | 58 nM | < 50% |  |  |  | 854 nM | < 50% | 1270 nM |  | 102.69% | 97.8% | 95.6% | 99.76% | 100% |
| C=CCOc1c(OC)cc2c3c1-c1cc([N+](=O)[O-])ccc1CC3N(C)CC2 (stereo not drawn) |  | < 50% | < 50% | 1680 nM | < 50% |  |  |  | < 50% |  |  |  |  |  |
| COc1cc2c3c(c1OC)-c1cc(N)ccc1CC3N(C)CC2 (stereo not drawn) | 691 nM | < 50% |  | 156 nM |  | 260 nM |  | 585 nM |  |  |  |  |  |  |
